“Also recorded” adds a separate entry of the source.
Tests used:
carcinoma cell lines = details: in some of the cell lines; Fanjul et al. 1996; cited from earlier work
[1] = test system: MCF-7 human breast cancer lines; details: Toma et al. 1997; cited from earlier work
HL-60 cells = test: Cell proliferation assay (MTT) in HL-60 leukemia cell line; type: cell-based, human
Protocol: (§1) The SK-BR-3, T47D and HL-60 cell cultures in which the assay procedures were performed are also well known and are available from sources well known in the art. Specifically, as is known, T47D is an estrogen receptor positive (ER^+) human breast cancer cell line, and SK-BR-3 is an estrogen receptor negative (ER^−) human breast cancer cell line. HL-60 is a well known human myeloid leukemia cell line. The assay procedure for the breast cancer lines itself is well known in the art and involves determining incorporation of 5-bromo-2′-deoxyuridine (BrdU) into the cells. As is known, incorporation of less BrdU represents less cell proliferation (inhibition of cell proliferation), and this assay is accepted in the art as a measure of anti-proliferative or anti-tumor activity of the assayed agent or agents. The assay procedure for the HL-60 cell line is also well-known in the art. It involves measuring the concentration of formazan dye which is cleaved from 3-[4,5-dimethylthiazole-2-yl]-2,5-diphenyltetrazolium bromide by viable HL-60 cells.
The human myeloid leukemia cell line HL-60 was cultured in Iscove's modified Dulbecco's medium (IMDM Gibco BRL, Gaithersburg, Md.) supplemented with 10% fetal bovine serum (HyClone, Logan, Utah), 2 mM L-glutamine and 1% antibiotics-antimycotics (Gibco BRL). HL-60 cells were obtained from the American Type Culture Collection (ATCC, Rockville, Md., CCL-240). Cells were cultured at 37° C. in a humidified atmosphere containing 5% CO2.
Proliferation of the HL-60 leukemia cell line was determined by a cell viability and non-radioactive commercial cell proliferation kit (MTT assay; Roche Diagnostics, Indianapolis, Ind.), essentially by following the instructions of the manufacturer. Cells were seeded into 96-well tissue culture plates (Corning Incorporated, Corning, N.Y.) at a concentration of 1000 cells/well. After 24 hours, the cells were treated continuously with tazarotene (Formula 3) and/or IFNs or solvent alone. […] The quantification of viable cells, capable of cleaving MTT to form a formazan dye, was assessed by measuring absorbance at 590 nm. […]
The growth inhibition observed for a combined treatment with tazarotene (Formula 3) and IFNs was analyzed for both synergistic and additive effects. […] The mathematical multiplication of the two surviving fractions after the treatment of either with tazarotene (Formula 3) or with the respective interferon is the calculated value for simple additivity of both agents in combination. This calculated value is compared to the actual value observed to determine the nature of the combination effect. […] Synergism or inhibition was determined for each experiment individually, with the P value being 0.05 in comparison to the simple additivity hypothesis.

T-47D cells = test: Cell proliferation assay (BrdU incorporation) in T-47D breast cancer cells; type: cell-based, human
Protocol: as §1
(§2) The estrogen receptor-positive (ER^+) cell line T-47D and the ER^− cell line SK-BR-3 were cultured in Dulbecco's modification of Eagle's medium (DMEM Gibco BRL, Gaithersburg, Md.) supplemented with 10% fetal bovine serum (HyClone, Logan, Utah), 2 mM L-glutamine and 1% antibiotics-antimycotics (Gibco BRL). Cell lines were obtained from the American Type Culture Collection (ATCC, Rockville, Md., HTB-133 and HTB-30 for T-47D and SK-BR-3, respectively). Cells were cultured at 37 °C in a humidified atmosphere containing 5% CO2.
(§3) Proliferation of cancer cell lines was determined using a commercial cell proliferation kit (Roche Diagnostics), essentially following the instructions of the manufacturer. Cells were seeded into 96-well tissue culture plates (Corning Incorporated, Corning, N.Y.) at a concentration of 3000 cells/well. After 24 hours, cells were treated continuously with tazarotene (Formula 3) and/or interferons (IFNs) or solvent alone. The appropriate concentrations of tazarotene (Formula 3) used in this study were between 10^−11 M and 10^−6M; IFN concentrations were between 10 and 1000 Unit/ml. Culture media were changed every 72 hours. After 7 days, 10 μl of 5-bromo-2′-deoxyuridine (BrdU) was added to each well. Incubation with BrdU was stopped 24 hours later by adding 100 μl of anti-BrdU antibody to each well. The amount of BrdU incorporated into the DNA of proliferating cells was assessed by measuring absorbance at […]. Each experiment was performed in triplicate in three independent experiments.
(§4) The growth inhibition observed for a combined treatment with tazarotene (Formula 3) and IFNs was analyzed for both synergistic and additive effects. The criteria for these effects have been discussed by three different groups (Aapro et al., Cancer Chemother. Pharmacol., 10: 161-166, 1983, Marth et al. J. Natl Cancer Inst., 77:1197-1202, 1986, Kurbacher et al., Cancer Letters, 103: 183-189, 1996). The mathematical multiplication of the two surviving fractions after the treatment of either with tazarotene (Formula 3) or with the respective interferon is the calculated value for simple additivity of both agents in combination. This calculated value is compared to the actual value observed to determine the nature of the combination effect. […] Synergism or inhibition was determined for each experiment individually, with the P value being 0.05 in comparison to the simple additivity hypothesis.

SK-BR-3 cells = test: Cell proliferation assay (BrdU incorporation) in SK-BR-3 breast cancer cells; type: cell-based, human
Protocol: as §1, §2, §3, §4

[2] = test system: MDA-MB 231 human carcinoma cell line; details: Kurbacher et al. 1996; cited from earlier work
[3] = test system: MCF-7 human carcinoma cell line; details: Kurbacher et al. 1996; cited from earlier work

COC(=O)c1ccc(/C(C)=C/c2ccc3c(c2)C(C)(C)CCC3(C)C)cc1 [SRI 11220]
anti-proliferative activity in combination with interferon (carcinoma cell lines): synergistic

CC1=C(/C=C/C(C)=C/C=C/C(C)=C/C(=O)O)C(C)(C)CCC1 [all trans retinoic acid]
combination effect with other chemotherapeutic agents such as tamoxifen (TAM) [1]: synergistic effect
combination effect with α interferon (α IFN) [1]: synergistic effects

CCOC(=O)c1ccc(C#Cc2ccc3c(c2)C(C)(C)CCS3)nc1 [tazarotene, ethyl 6-[2-(4,4-dimethylthiochroman-6-yl)ethynyl]nicotinate]
anti-proliferative effect of combination with IFNα (combination effect) (HL-60 cells; IFNα constant 100 U/ml, tazarotene varied, FIG. 13): significant synergism
anti-proliferative effect of combination with IFNβ (combination effect) (HL-60 cells; IFNβ constant 100 U/ml, tazarotene varied, FIG. 14): significant synergism
anti-proliferative effect of combination with IFNα (combination effect) (HL-60 cells; tazarotene constant 50 nM, IFNα varied 0 to 1000 U/ml, FIG. 15): significant synergism
anti-proliferative effect of combination with IFNβ (combination effect) (HL-60 cells; tazarotene constant 50 nM, IFNβ varied 0 to 1000 U/ml, FIG. 16): significant synergism
anti-proliferative effect of combination with IFNα (combination effect) (T-47D cells; IFNα constant 100 U/ml, tazarotene varied, FIG. 2): synergism, although not as striking as in the assays with SK-BR-3 cells
anti-proliferative effect of combination with IFNβ (combination effect) (T-47D cells; IFNβ constant 100 U/ml, tazarotene varied, FIG. 4): synergism; also recorded: synergism, although not as striking as in the assays with SK-BR-3 cells
anti-proliferative effect of combination with IFNγ (combination effect) (T-47D cells; IFNγ constant 100 U/ml, tazarotene varied, FIG. 6): synergism, although not as striking as in the assays with SK-BR-3 cells
anti-proliferative effect of combination with IFNα (combination effect) (T-47D cells; tazarotene constant 10 nM, IFNα varied 0 to 1000 U/ml, FIG. 8): weak synergism
anti-proliferative effect of combination with IFNβ (combination effect) (T-47D cells; tazarotene constant 10 nM, IFNβ varied 0 to 1000 U/ml, FIG. 10): significant synergism
anti-proliferative effect of combination with IFNα (combination effect vs theoretically additive curve) (SK-BR-3 cells; IFNα constant 100 U/ml, tazarotene varied, FIG. 1): synergism; also recorded: synergistic effect
anti-proliferative effect of combination with IFNβ (combination effect) (SK-BR-3 cells; IFNβ constant 10 U/ml, tazarotene varied, FIG. 3): synergism; also recorded: significant synergistic effect
anti-proliferative effect of combination with IFNγ (combination effect) (SK-BR-3 cells; IFNγ constant 100 U/ml, tazarotene varied, FIG. 5): synergism; also recorded: significant synergistic effect
anti-proliferative effect of combination with IFNα (combination effect) (SK-BR-3 cells; tazarotene constant 10 nM, IFNα varied 0 to 1000 U/ml, FIG. 7): striking synergism
anti-proliferative effect of combination with IFNβ (combination effect) (SK-BR-3 cells; tazarotene constant 10 nM, IFNβ varied 0 to 1000 U/ml, FIG. 9): striking synergism
anti-proliferative effect of combination with IFNγ (combination effect) (SK-BR-3 cells; tazarotene constant 10 nM, IFNγ varied 0 to 1000 U/ml, FIG. 11): striking synergism

O=C1O[C@H]([C@@H](O)CO)C(O)=C1O [vitamin C]
combination effect with certain chemotherapeutic anti-tumor agents [2]: synergistic action
combination effect with certain chemotherapeutic anti-tumor agents [3]: synergistic action

From patent US6903121B1, “TREATMENT OF TUMORS WITH ACETYLENES DISUBSTITUTED WITH A PHENYL OR HETEROAROMATIC GROUP AND A SUBSTITUTED CHROMANYL, THIOCHROMANYL OR TETRAHYDROQUINOLINYL GROUP IN COMBINATION WITH OTHER ANTI-TUMOR AGENTS” (Allergan, Inc., priority 2000, dated 2005)
